The text below walks through data of PMC12693416, “From Lipid Regulation to Neuroprotection: Multitarget (Benzo)thiazine Derivatives as Promising Leads” (Molecules, 2025).

Like-named read-outs stand apart in the source and are kept apart here.

One assay deals with AChE. The conditions noted are these: read-out: IC50 against AChE; cited from earlier work.
The test system of assay [1] is plasma of hyperlipidaemic mice. Put plainly: Total antioxidant capacity (TAC) of plasma in hyperlipidaemic mice. Format: in vivo. The conditions noted are these: Mus musculus, ip, 24 h, i.p. 84 μmol/kg, read-out: Total Antioxidant Capacity (TAC) Increase (%).
A further assay relates to hyperlipidaemic mice. Kind of assay: Tyloxapol (Triton WR 1339)-induced hyperlipidemia, plasma lipid parameters. The conditions noted are these: i.p. 84 μmol/kg; for change in vivo at 84 µmol/kg / inhibition in vivo at 84 µmol/kg: Mus musculus, ip, 24 h. Format: in vivo. On the procedure: An aqueous solution of Triton WR 1339 was given i.p. to mice (400 mg/kg of body weight) and one hour later the test compounds (84 μmol/kg of body weight), dissolved in saline or saline only, were administered i.p. After 24 h, blood was taken from the aorta/heart and used for the determination of plasma total cholesterol (TC), triglyceride (TG) levels, and high-density lipoprotein (HDL) levels, using commercially available kits (Biosis Cholesterol Enzymatic/PAP, Biosis Triglycerides GPO/PAP, and Biosis HDL Phosphovolframic, Biosis, Athens Greece). Levels of plasma lipids were determined in duplicate while values presented are the mean from 8 animals (per compound). The levels of low-density lipoprotein (LDL) are calculated according to the equation: LDL (mg/dL) = 3/4 * (TC-HDL).

The target in assay [2] is soybean lipoxygenase (LOX-3). Kind of assay: Soybean lipoxygenase (LOX-3) inhibition. Format: biochemical. The settings on record: after 5 min of incubation; sodium linoleate 100 μM, pH 9.0. Here is the method: Lipoxygenase (LOX) inhibitory activity was determined using soybean lipoxygenase (250 U/mL) and sodium linoleate (100 μM) as substrate, in Tris–HCl buffer pH 9.0.

Assay [3] has as its system mouse liver microsomal lipid peroxidation. Kind of assay: Inhibition of mouse liver microsomal lipid peroxidation (LP). The conditions noted are these: read-out: LP IC50 Value; 45 min incubation.
Assay [4] is described as follows: Radical scavenging of DPPH. The conditions noted are these: DPPH 200 μM, 30 min incubation. On the procedure:
Compounds, dissolved in absolute methanol, at concentrations of 25–400 μM, were added to an equal volume of a methanolic solution of DPPH (final concentration 200 μM) at room temperature (22 ± 2 °C).
A general note: Loss of DPPH colour is used to gauge radical scavenging.

For assay [5], the target named is T1, acetylcholinesterase from eel (Electrophorus electricus, UniProt O42275).
T1 construct: purchased Sigma
T1 sequence (O42275 24-633): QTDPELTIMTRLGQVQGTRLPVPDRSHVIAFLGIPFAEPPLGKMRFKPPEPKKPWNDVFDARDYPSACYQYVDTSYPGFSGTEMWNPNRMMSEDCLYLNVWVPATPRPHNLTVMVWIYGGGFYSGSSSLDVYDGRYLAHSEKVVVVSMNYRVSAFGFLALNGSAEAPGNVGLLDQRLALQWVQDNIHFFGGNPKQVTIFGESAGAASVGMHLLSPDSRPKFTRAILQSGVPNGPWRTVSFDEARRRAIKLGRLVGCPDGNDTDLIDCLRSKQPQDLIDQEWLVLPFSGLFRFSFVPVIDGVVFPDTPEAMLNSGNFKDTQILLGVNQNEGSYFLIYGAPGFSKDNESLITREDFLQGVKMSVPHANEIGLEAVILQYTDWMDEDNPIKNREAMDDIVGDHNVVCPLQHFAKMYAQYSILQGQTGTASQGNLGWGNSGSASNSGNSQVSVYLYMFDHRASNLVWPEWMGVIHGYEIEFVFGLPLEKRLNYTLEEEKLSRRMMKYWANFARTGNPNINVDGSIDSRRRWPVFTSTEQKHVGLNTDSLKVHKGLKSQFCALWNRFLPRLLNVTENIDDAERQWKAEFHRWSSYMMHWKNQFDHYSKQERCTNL
Kind of assay: Acetylcholinesterase (AChE) inhibition (Ellman). It counts as biochemical. The conditions noted are these: for inhibition at 300 µM: read-out: AChE Inhibition (%), 300 μM compound. Here is the method:
(0.31 mM) in phosphate buffer with pH = 7. The incubation mixture is monitored for 7 min at 37 °C.

The subject of assay [6] is carrageenan-induced mouse paw edema. Kind of assay: Carrageenan-induced mouse paw edema. Format: in vivo, C57BL/6 mice. The conditions noted are these: ip, 3.5 h, i.p. 0.30 mmol/kg, female C57BL/6, 3.5 h after carrageenan, read-out: % Edema (decrease of carrageenan-induced paw edema vs control). Here is the method: For the in vivo anti-inflammatory activity, C57BL/6 mice were injected with 0.025 mL carrageenan (2% w/v solution in saline) i.d. into the right hind paw, the left paw serving as control. The test compounds dissolved in saline (300 μmol/kg) were given i.p. right after the carrageenan injection, and 3.5 h later the produced edema was estimated as paw weight increase. Results are expressed as percentage of reduction in paw-edema and are the mean of 6 animals (per compound).
For orientation: The carrageenan paw model is a standard test of acute inflammation.

Assay [7] is described as follows: Iron chelation (ferrozine assay). The conditions noted are these: for % of Fe(II) Chelation (at 100 μM): 100 μM compound, Fe2+ 20 μM. On the procedure:
[…] The reaction was initiated with the addition of a 100 μM aqueous ferrozine solution, which chelates iron ions, resulting in an increased maximum absorbance at 562 nm. After incubation at 37 °C for 10 min, the mixture’s absorbance is measured at 562/700 nm. Each value is expressed as the mean of 3 tests per sample [46].

[8] abbreviates: plasma, vs tyloxapol control, read-out: % HDL Increase.
Setting [9] is: LDL calculated as 3/4*(TC-HDL), read-out: % LDL Decrease.
Setting [10] is: plasma, vs tyloxapol control, read-out: % Total Cholesterol (TC) Reduction.
[11] abbreviates: plasma, vs tyloxapol control, read-out: % Triglycerides (TG) Reduction.
Setting [12] is: ratio calculated, read-out: % HDL/LDL Increase (antiatherogenic index).

The IC50 is the concentration at which inhibition is half-maximal. On to `COc1cc(C(=O)O)cc(OC)c1O` [syringic acid], for which the IC50 in the assay with AChE is about 149 µM.

The term inhibition denotes the percentage by which the read-out fell short of the control. For the molecule `COc1cc(C(=O)N2CCSC(c3ccc(-c4ccccc4)cc3)C2)cc(OC)c1OC` (centres unmarked) [Compound 4], the change in vivo at 84 µmol/kg came out at 87% in [1] and 95% in the assay with hyperlipidaemic mice (setting [8]). Besides, the inhibition in vivo at 84 µmol/kg in the assay on hyperlipidaemic mice (setting [9]) was 5%; with hyperlipidaemic mice (setting [10]), 10%; with hyperlipidaemic mice (setting [11]), 35%. Besides, the IC50 in assay [2] is 71 µM; in [3], over 500 µM; in assay [4], over 400 µM. In addition, the inhibition at 300 µM in assay [5] turned out to be 30%. Also, the inhibition in vivo at 300 µmol/kg in [6] is 44%. Besides, the “% of Fe(II) Chelation (at 100 μM)” value in assay [7] is given as 4%.

`O=C(c1cccnc1)N1CCSC(c2ccc(-c3ccccc3)cc2)C1` (centres unmarked) [Compound 9]: the change in vivo at 84 µmol/kg in [1] was 60%; in the assay on hyperlipidaemic mice (setting [12]), 105%. Besides, the inhibition in vivo at 84 µmol/kg with hyperlipidaemic mice (setting [9]) was 44%; with hyperlipidaemic mice (setting [10]) it was 35%. The “% Triglycerides (TG), value marked footnote 1: increase percentage” value in the assay with hyperlipidaemic mice (plasma, TG increase, not reduction) is 33 *^,1%. For the same molecule, the results for the half-maximal inhibitory concentration (IC50) in assay [2], in assay [3] and in assay [4] were 192 µM, over 1000 µM and over 400 µM, respectively. In addition, the inhibition at 300 µM in assay [5] worked out at 33%. In [6], the inhibition in vivo at 300 µmol/kg was 34%. In addition, the “% of Fe(II) Chelation (at 100 μM)” value in assay [7] is given as 2%.

Take `O=C(c1cc(O)c(O)c(O)c1)N1CC(c2ccc(-c3ccccc3)cc2)Sc2ccccc21` (centres unmarked) [Compound 13, (2-([1,1′-Biphenyl]-4-yl)-2,3-dihydro-4H-benzo[b][1,4]thiazin-4-yl)(3,4,5-trihydroxyphenyl)methanone]: the change in vivo at 84 µmol/kg in [1] came to 60%; in the assay with hyperlipidaemic mice (setting [8]), 25%. Also, the inhibition in vivo at 84 µmol/kg in the assay on hyperlipidaemic mice (setting [9]) is 62%; in the assay with hyperlipidaemic mice (setting [10]), 47%; in the assay on hyperlipidaemic mice (setting [11]), 53%. The IC50 in assay [2] came to 37 µM; in assay [3], 24 µM; in assay [4] it was 36 µM. In addition, the inhibition at 300 µM in assay [5] was about 45%. Also, the inhibition in vivo at 300 µmol/kg in [6] is at most 60%. Also, the “% of Fe(II) Chelation at 10 μM” value in assay [7] (10 μM compound) was 12%. In addition, the “% of Fe(II) Chelation (at 100 μM)” value in assay [7] was determined as 91%.

As for `O=C(/C=C/c1ccc(O)c(O)c1)O[C@@H]1C[C@](O)(C(=O)O)C[C@@H](O)[C@H]1O` [chlorogenic acid], in the assay on AChE, the 50% inhibitory concentration (IC50) was about 277 µM.

As to `CC(C)(C)c1cc(C(=O)N2CC(c3ccc(-c4ccccc4)cc3)Sc3ccccc32)cc(C(C)(C)C)c1O` (centres unmarked) [Compound 15, (2-([1,1′-Biphenyl]-4-yl)-2,3-dihydro-4H-benzo[b][1,4]thiazin-4-yl)(3,5-ditertbutyl-4-hydroxyphenyl)methanone], the change in vivo at 84 µmol/kg was found to be 131% in assay [1] and 79% with hyperlipidaemic mice (setting [8]). The inhibition in vivo at 84 µmol/kg in the assay on hyperlipidaemic mice (setting [9]) was 74%; in the assay on hyperlipidaemic mice (setting [10]) it was 55%; in the assay on hyperlipidaemic mice (setting [11]), 35%. Further, the IC50 in [2] is 83 µM; in assay [3] it was over 500 µM; in assay [4], over 400 µM. In addition, the inhibition at 300 µM in assay [5] came to 23%. The inhibition in vivo at 300 µmol/kg in assay [6] is 31%. For the same molecule, in assay [7], the “% of Fe(II) Chelation (at 100 μM)” value was 8%.

Take `O=C(/C=C/c1ccccc1)N1CCSC(c2ccc(-c3ccccc3)cc2)C1` (centres unmarked) [Compound 8, (E)-1-(2-([1,1′-Biphenyl]-4-yl)thiomorpholino)-3-phenylprop-2-en-1-one]: the change in vivo at 84 µmol/kg in [1] is 104%; with hyperlipidaemic mice (setting [8]) it was 9%; in the assay with hyperlipidaemic mice (setting [12]), 91%. The inhibition in vivo at 84 µmol/kg in the assay with hyperlipidaemic mice (setting [9]) was 57%; with hyperlipidaemic mice (setting [10]), 45%; with hyperlipidaemic mice (setting [11]), 53%. In addition, the concentration for half-maximal inhibition (IC50) in [2] is over 200 µM; in assay [3], over 1000 µM; in assay [4], over 400 µM. Further, the inhibition at 300 µM in [5] amounted to 19%. Also, the inhibition in vivo at 300 µmol/kg in assay [6] was found to be 46%. The “% of Fe(II) Chelation (at 100 μM)” value in [7] is listed as 5%.

`c1ccc(-c2ccc(C3CNc4ccccc4S3)cc2)cc1` (centres unmarked) [Compound 11, 2-([1,1′-Biphenyl]-4-yl)-3,4-dihydro-2H-benzo[b][1,4]thiazine]: the change in vivo at 84 µmol/kg in assay [1] is over 200%; in the assay on hyperlipidaemic mice (setting [8]) it was 101%. Also, the values for the inhibition in vivo at 84 µmol/kg in the assay on hyperlipidaemic mice (setting [9]), in the assay on hyperlipidaemic mice (setting [10]) and with hyperlipidaemic mice (setting [11]) were 48%, 23% and 59%, respectively. Further, the IC50 was 134 µM in assay [2], 30 µM in assay [3] and over 400 µM in assay [4]. In addition, the “AChE Inhibition (%)” value in assay [5] (300 μM compound) is “inactivity”. Besides, the inhibition in vivo at 300 µmol/kg in assay [6] was determined as 40%. Further, the “% of Fe(II) Chelation (at 100 μM)” value in [7] turned out to be 10%.

Turning to `COc1ccc(/C=C/C(=O)N2CC(c3ccc(-c4ccccc4)cc3)Sc3ccccc32)cc1OC` (centres unmarked) [Compound 12, (E)-1-(2-([1,1′-Biphenyl]-4-yl)-2,3-dihydro-4H-benzo[b][1,4]thiazin-4-yl)-3-(3,4-dimethoxyphenyl)prop-2-en-1-one], the change in vivo at 84 µmol/kg turned out to be 203% in [1] and 63% in the assay on hyperlipidaemic mice (setting [8]). Also, the inhibition in vivo at 84 µmol/kg with hyperlipidaemic mice (setting [9]) is 59%; in the assay on hyperlipidaemic mice (setting [10]), 27%; in the assay with hyperlipidaemic mice (setting [11]), 29%. The values for the 50% inhibitory concentration (IC50) in [2], in [3] and in assay [4] were 74 µM, over 1000 µM and over 400 µM, respectively. In addition, in [5], the inhibition at 300 µM turned out to be 17%. Moreover, the inhibition in vivo at 300 µmol/kg in assay [6] is 43%. Moreover, the “% of Fe(II) Chelation (at 100 μM)” value in assay [7] was found to be 17%.

For `CC(C)Cc1ccc(C(C)C(=O)N2CC(c3ccc(-c4ccccc4)cc3)Sc3ccccc32)cc1` (centres unmarked) [Compound 17, 1-(2-([1,1′-Biphenyl]-4-yl)-2,3-dihydro-4H-benzo[b][1,4]thiazin-4-yl)-2-(4-isobutylphenyl)propan-1-one], the change in vivo at 84 µmol/kg in [1] was found to be 139%; in the assay on hyperlipidaemic mice (setting [8]) it was 43%. For the same molecule, the results for the inhibition in vivo at 84 µmol/kg in the assay with hyperlipidaemic mice (setting [9]), in the assay with hyperlipidaemic mice (setting [10]) and with hyperlipidaemic mice (setting [11]) were 68%, 45% and 58%, respectively. In addition, the 50% inhibitory concentration (IC50) in assay [2] is 104 µM; in assay [3], over 1000 µM; in [4], over 400 µM. Besides, the inhibition at 300 µM in assay [5] is 13%. The inhibition in vivo at 300 µmol/kg in [6] amounted to 39%. In assay [7], the “% of Fe(II) Chelation (at 100 μM)” value is listed as 29%.

In the case of `COc1ccc(/C=C/C(=O)N2CCSC(c3ccc(-c4ccccc4)cc3)C2)cc1OC` (centres unmarked) [Compound 2, (E)-1-(2-([1,1′-Biphenyl]-4-yl)thiomorpholino)-3-(3,4-dimethoxyphenyl)prop-2-en-1-one], the results for the change in vivo at 84 µmol/kg (in assay [1]; in the assay with hyperlipidaemic mice (setting [8]); with hyperlipidaemic mice (setting [12])) were 43%, 44% and 122%, respectively. Moreover, the inhibition in vivo at 84 µmol/kg in the assay with hyperlipidaemic mice (setting [9]) was 53%; in the assay on hyperlipidaemic mice (setting [10]) it was 30%; in the assay on hyperlipidaemic mice (setting [11]), 60%. Further, the IC50 in assay [2] is over 300 µM; in assay [3] it was over 1000 µM; in [4], over 400 µM. Further, in [5], the inhibition at 300 µM is 26%. In addition, the inhibition in vivo at 300 µmol/kg in assay [6] is at most 60%. Further, the “% of Fe(II) Chelation (at 100 μM)” value in assay [7] is recorded as 18%.
